US7524844B2, “Dipeptidyl peptidase IV inhibitors, process for their preparation and compositions containing them” (Glenmark Pharmaceuticals S.A., priority 2004, dated 2009)

Target: T1, human recombinant Dipeptidyl peptidase IV enzyme (DPP-IV) (Homo sapiens, UniProt P27487)
T1 construct: purchased R&D Systems Inc. of Minneapolis, Minn
Assay: in-vitro DPP-IV assay (cleavage of AMC from Gly-Pro-AMC)
Type: biochemical
Settings: human recombinant DPP-IV, Gly-Pro-AMC substrate, 30° C., 30 minutes; read-out: DPP-IV inhibition using human recombinant DPP-IV enzyme, IC50
Procedure: DPP-IV activity was determined by the cleavage rate of 7-amino-4-methyl coumarin (AMC) from the synthetic substrate Glycyl-Prolyl-AMC. In brief, the assay was conducted by adding 10 ng of human recombinant Dipeptidyl peptidase IV enzyme (DPP-IV, available commercially from R&D Systems Inc. of Minneapolis, Minn.) in 50 μl of the assay buffer (25 mM Tris, pH 7.4, 140 mM NaCl, 10 mM KCl, 1% BSA) to 96 well black flat bottom microtiter plates. The reaction was initiated by adding 50 μl of 100 μM substrate Gly-Pro-AMC. The incubation was carried out in the kinetic mode at 30° C. for 30 minutes. Fluorescence was measured using Fluorostar with an excitation filter of 380 nm and emission filter of 460 nm. Test compounds and solvent controls were added as 1 μl additions. A standard curve of free amino methyl coumarin (AMC) was generated using 0-100 μM AMC in the assay buffer. The curve generated, which was linear was used for the interpolation of catalytic activity.
Test compounds dissolved in DMSO at 5-6 concentrations were tested in duplicate along with the solvent control and blank samples. Percent inhibition was calculated at each concentration with respect to the solvent control sample (no test compound added). […]

T1 sequence (P27487 whole entry): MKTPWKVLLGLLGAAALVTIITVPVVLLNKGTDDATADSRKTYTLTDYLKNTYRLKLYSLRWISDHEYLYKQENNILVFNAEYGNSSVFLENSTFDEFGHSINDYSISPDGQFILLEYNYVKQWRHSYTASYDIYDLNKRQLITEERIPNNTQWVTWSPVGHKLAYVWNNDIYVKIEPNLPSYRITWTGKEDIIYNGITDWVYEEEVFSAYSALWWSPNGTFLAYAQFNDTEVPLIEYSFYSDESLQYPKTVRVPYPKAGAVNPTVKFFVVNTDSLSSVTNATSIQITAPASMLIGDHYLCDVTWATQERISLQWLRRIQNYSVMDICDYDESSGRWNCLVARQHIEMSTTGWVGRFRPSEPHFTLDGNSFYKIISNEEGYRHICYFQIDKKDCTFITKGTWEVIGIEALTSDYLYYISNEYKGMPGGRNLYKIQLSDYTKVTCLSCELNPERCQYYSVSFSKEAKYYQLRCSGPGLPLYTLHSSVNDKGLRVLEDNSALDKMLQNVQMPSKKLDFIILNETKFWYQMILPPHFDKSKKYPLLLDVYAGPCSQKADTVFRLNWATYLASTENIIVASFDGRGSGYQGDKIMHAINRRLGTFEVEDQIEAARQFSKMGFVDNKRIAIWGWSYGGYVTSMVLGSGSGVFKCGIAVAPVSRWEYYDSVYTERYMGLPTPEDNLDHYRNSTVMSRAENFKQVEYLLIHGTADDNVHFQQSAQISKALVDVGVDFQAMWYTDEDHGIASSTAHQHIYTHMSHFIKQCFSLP

IC50: 9.25 nM
Compound: N#C[C@@H]1CCCN1C(=O)CN[C@@H]1CC[C@H](Cn2nc3ccccc3n2)C1 [Example-71, (2S)-1-{2-[(3S,1R)-3-(2H-benzo[d][1,2,3]triazol-2-ylmethyl)cyclopentylamino]-acetyl}pyrrolidine-2-carbonitrile]
